Data taken from publication PMC6530635, “A Novel Single-Site Mutation in the Catalytic Domain of Protoporphyrinogen Oxidase IX (PPO) Confers Resistance to PPO-Inhibiting Herbicides” (Frontiers in Plant Science, 2019).
pIC50: −log10 of the molar value. Like-named read-outs stand apart in the source and are kept apart here.

Experiments:
[1] = target: recombinant Amaranthus tuberculatus PPO2 wild-type enzyme (Amaranthus tuberculatus, UniProt Q0NZW9); assay: biochemical
[2] = test system: Amaranthus palmeri MIS-D population; set-up: method as in Salas-Perez et al., 2017; conditions: ref Salas-Perez et al., 2017, cited from earlier work; for Response of MIS-D to 1X dose / Frequency of resistant plants: MIS-D field population
[3] = test system: Amaranthus palmeri R39P population; type: in vivo; conditions: for Frequency of resistant plants: R39P F1 population, 2X recommended dose, 21 DAT, 25 seedlings
[4] = test system: Amaranthus palmeri (Palmer amaranth) populations MIS-D, R39P, R43P and SS; type: in vivo; conditions: visual injury 21 DAT, foliar spray

Chain of recombinant Amaranthus tuberculatus PPO2 wild-type enzyme (Q0NZW9 1-534): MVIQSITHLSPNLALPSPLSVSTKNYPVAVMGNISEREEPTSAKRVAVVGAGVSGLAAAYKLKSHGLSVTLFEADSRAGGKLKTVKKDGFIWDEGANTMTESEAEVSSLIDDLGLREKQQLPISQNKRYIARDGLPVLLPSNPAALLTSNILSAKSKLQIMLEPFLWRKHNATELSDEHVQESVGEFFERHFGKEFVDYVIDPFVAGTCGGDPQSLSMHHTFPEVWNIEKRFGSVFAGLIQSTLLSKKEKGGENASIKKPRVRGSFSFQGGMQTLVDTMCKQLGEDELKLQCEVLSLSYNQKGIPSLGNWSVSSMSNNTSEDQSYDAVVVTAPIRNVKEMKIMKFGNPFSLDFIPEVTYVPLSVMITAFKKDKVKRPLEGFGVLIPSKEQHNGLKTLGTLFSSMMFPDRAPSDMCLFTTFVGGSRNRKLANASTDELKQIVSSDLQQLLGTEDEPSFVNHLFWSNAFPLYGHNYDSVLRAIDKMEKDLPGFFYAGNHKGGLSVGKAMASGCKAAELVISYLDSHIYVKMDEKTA

SMILES | pIC50 [1] | Response of MIS-D to 1X dose [2] | Frequency of resistant plants ([2]; 1X dose) | Frequency of resistant plants [3] | further results
Cc1nn(-c2cc(NS(C)(=O)=O)c(Cl)cc2Cl)c(=O)n1C(F)F [Sulfentrazone] | 7.76 | – | – | – | –
CCOC(=O)C(C)OC(=O)c1cc(Oc2ccc(C(F)(F)F)cc2Cl)ccc1[N+](=O)[O-] (stereo not shown) [Lactofen] | 10.25 | resistant | 23% | 40% | Frequency of resistant plants ([3]; listed as lactofen): ≥ 40%
C#CCN1C(=O)COc2cc(F)c(N3C(=O)C4=C(CCCC4)C3=O)cc21 [Flumioxazin] | 10.41 | resistant | 40% | 60% | Frequency of resistant plants ([3]; listed as flumioxazin): ≥ 40%
CS(=O)(=O)NC(=O)c1cc(Oc2ccc(C(F)(F)F)cc2Cl)ccc1[N+](=O)[O-] [Fomesafen] | 8.88 | resistant | 42% | – | ED50 (dose causing 50% herbicide injury) ([4]; MIS-D field population, PPO-resistant): 124 (101–147) g ai ha^-1; ED50 (dose causing 50% herbicide injury) ([4]; R39P F1 population, PPO-resistant): 143 (122–165) g ai ha^-1; ED50 (dose causing 50% herbicide injury) ([4]; R43P F1 population, PPO-resistant): 187 (174–202) g ai ha^-1; ED50 (dose causing 50% herbicide injury) ([4]; SS population, PPO-sensitive): 12 (10–13) g ai ha^-1; Survival rate ([3]; R39P, 2X dose): < 20%
CC(C)N(C)S(=O)(=O)NC(=O)c1cc(-n2c(=O)cc(C(F)(F)F)n(C)c2=O)c(F)cc1Cl [Saflufenacil] | – | – | – | – | Survival rate ([3]; in vivo): < 20%
C=CCOC(=O)C(C)(C)OC(=O)c1cc(-n2c(=O)cc(C(F)(F)F)n(C)c2=O)ccc1Cl [Butafenacil] | 11.05 | – | – | – | –
COC(=O)CSc1cc(/N=c2\sc(=O)n3n2CCCC3)c(F)cc1Cl [Fluthiacet-methyl] | 9.17 | resistant | – | – | –
Cc1nn(-c2cc(CC(Cl)C(=O)O)c(Cl)cc2F)c(=O)n1C(F)F (stereo not shown) [Carfentrazone] | 9.71 | resistant | – | 64% | Frequency of resistant plants ([3]; listed as carfentrazone): ≥ 40%
CC(C)Oc1cc(-n2nc(C(C)(C)C)oc2=O)c(Cl)cc1Cl [Oxadiazon] | 9.15 | – | – | – | –
CCOC(=O)COc1cc(-c2nn(C)c(OC(F)F)c2Cl)c(F)cc1Cl [Pyraflufen-ethyl] | 10.28 | resistant | – | – | –
O=C(O)c1cc(Oc2ccc(C(F)(F)F)cc2Cl)ccc1[N+](=O)[O-] [Acifluorfen] | 7.73 | – | 1% | 8% | Mortality ([2]; MIS-D, 1X dose): > 90%; Survival rate ([3]; in vivo): < 20%
CCOc1cc(Oc2ccc(C(F)(F)F)cc2Cl)ccc1[N+](=O)[O-] [Oxyfluorfen] | 10.47 | – | – | – | –
C#CCN(C)c1c(C#N)cnn1-c1nn2c(c1Cl)CCCC2 [Pyraclonil] | – | – | – | – | pIC50 ([1]; read-out: Wild type sensitivity [IC50]): 8.86
